According to patent US20090036389A1, “Polymeric Micelle Formulations of Hydrophobic Compounds and Methods” (priority 2002, published 2009):

Experiments:
[1] = Drug loading of PEG-b-PCL (5000:4000) micelles, cosolvent evaporation versus dialysis; assay type: physicochemical

Description for bovine erythrocytes: EDTA-anticoagulated bovine blood was diluted in PBS, pH=7.2. The erythrocytes were separated by centrifugation for 10 min at 3000 rpm. The supernatant was removed and discarded. The packed cell volume (PCV) was washed three more times with PBS. The PCV was diluted appropriately in PBS to obtain suspensions of 8×10^7 and 1.48×10^8 cells/mL. Cell counts were preformed using an Improved Neubauer Brightline hemacytometer (depth=0.1 mm) from Hausser Scientific (Horsham, Pa.). The AmB/polymer formulations and polymer blanks were brought to room temperature and reconstituted with 1.0 mL of PBS just prior to use. 1.85 mL of the 8×10^7 cells/mL suspension was incubated at 37° C. in a shaking water bath (75 rpm) with 150 μL of AmB/polymer formulation, polymer blank containing no AmB, or PBS buffer (control) for 24 h. […] The supernatant was collected, and hemoglobin content was determined by absorbance at 542 nm. […] Percent hemolysis is reported by 100(Abss-Absb)/(Abs1-Absb) where Abss is the absorbance of the sample, Absb is the average absorbance of the buffer, and Abss is the average absorbance of the lysed samples. […]
An 8 mg/mL AmB in DMSO stock solution was prepared. […] The samples were collected over time, and percent hemolysis was determined as described above.

Row | Structure (SMILES) | % Yield of Drug ([1]; Cosolvent Evaporation) [%] | % Yield of Drug ([1]; Dialysis) [%] | Final Drug/Polymer Mole Ratio ([1]; Cosolvent Evaporation) | Final Drug/Polymer Mole Ratio ([1]; Dialysis) | time-dependent hemolytic profile / onset of hemolysis (bovine erythrocytes)
1 | CC(C)OC(=O)C(C)(C)Oc1ccc(C(=O)c2ccc(Cl)cc2)cc1 [Fenofibrate, 2-[4-(4-chlorobenzoyl)phenoxy]-2-methylpropanoic acid 1-methylethyl ester] | 88 | 31 | – | – | –
2 | C[C@@H]1[C@H](O)[C@@H](C)/C=C/C=C/C=C/C=C/C=C/C=C/C=C/[C@H](O[C@@H]2O[C@H](C)[C@@H](O)[C@H](N)[C@@H]2O)C[C@@H]2O[C@](O)(C[C@@H](O)C[C@@H](O)[C@H](O)CC[C@@H](O)C[C@@H](O)CC(=O)O[C@H]1C)C[C@H](O)[C@H]2C(=O)O [Free AmB, amphotericin B] | 48 | 25 | 0.11 | 0.055 | immediate hemolysis
